{
  "source": "paper PMC5095511",
  "about": "(Journal of nuclear medicine : official publication, Society …, 2016)",
  "key": {"sEH [1]": {"tested_on": "sEH", "format": "in vivo, mouse (sEH-KO, C57BL/6)", "conditions": "baseline"}, "[2]": {"assay": "Radiometabolite analysis of baboon arterial blood/plasma by RP-HPLC", "format": "in vivo, Papio anubis (baboon)", "conditions": "90 min post-injection"}, "sEH [3]": {"target": "T1, sEH (Mus musculus, UniProt P34914)", "T1 sequence (P34914 1-554)": "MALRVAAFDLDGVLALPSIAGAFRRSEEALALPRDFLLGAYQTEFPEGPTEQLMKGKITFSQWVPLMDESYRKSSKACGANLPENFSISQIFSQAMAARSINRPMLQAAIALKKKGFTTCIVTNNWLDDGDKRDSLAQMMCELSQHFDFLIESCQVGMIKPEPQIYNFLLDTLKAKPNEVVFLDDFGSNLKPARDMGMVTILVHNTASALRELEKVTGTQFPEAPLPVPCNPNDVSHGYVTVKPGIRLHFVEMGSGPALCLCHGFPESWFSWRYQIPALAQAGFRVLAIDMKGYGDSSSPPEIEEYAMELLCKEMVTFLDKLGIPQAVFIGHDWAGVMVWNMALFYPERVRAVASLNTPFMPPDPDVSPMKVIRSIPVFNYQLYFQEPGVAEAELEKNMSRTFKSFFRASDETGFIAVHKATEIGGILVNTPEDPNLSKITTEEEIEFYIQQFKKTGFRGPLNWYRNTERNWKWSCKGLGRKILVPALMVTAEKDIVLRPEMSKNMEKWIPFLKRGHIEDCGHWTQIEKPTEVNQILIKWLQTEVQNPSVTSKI", "format": "in vivo, mouse (CD-1)", "conditions": "CD-1 mouse brain, high dose of blocker nor-fluoro-FNDP"}, "[4]": {"assay": "Baseline regional brain biodistribution of ^18F-FNDP in CD-1 mice", "format": "in vivo, mouse (CD-1)", "conditions": "IV, mean ± SD, n=3"}, "sEH [5]": {"tested_on": "sEH", "assay": "Dynamic PET imaging of baboon brain, baseline and blocking with nor-fluoro-FNDP", "format": "in vivo, Papio anubis (baboon)"}, "human sEH": {"tested_on": "human sEH", "conditions": "read-out: human IC50; cited from earlier work"}},
  "note": "“And” between values parts separate entries of the source, which are not always exact repeats. Equal entries are not always repeated.",
  "data": [
    {"smiles": "O=C(NCCC(c1ccccc1)c1ccccc1)c1ccc([18F])nc1", "note": "[^18F-FNDP, N-(3,3-diphenylpropyl)-6-^18F-fluoronicotinamide]", "values": [
      {"measurement": "Regional uptake in striatum, hippocampus and cortex", "setting": "sEH [1]; C57BL6 control mice, 60 min post-injection", "result": "~ 1 %ID/g"},
      {"measurement": "Reduction of uptake in sEH-KO mice as compared with controls", "setting": "sEH [1]; 60 min after radiotracer injection", "result": "~ 90%"},
      {"measurement": "Remaining parent compound in plasma radioactivity", "setting": "[2]", "result": "20% and ~ 20%"},
      {"measurement": "Specific (blocked) binding in striatum, hippocampus and cortex", "setting": "sEH [3]", "result": 90, "unit": "%"},
      {"measurement": "Regional brain uptake, cortex", "setting": "[4]; 5 min", "result": "4.69 ± 0.21", "unit": "%ID/g tissue"},
      {"measurement": "Regional brain uptake, hippocampus", "setting": "[4]; 5 min", "result": "3.29 ± 0.54", "unit": "%ID/g tissue"},
      {"measurement": "Regional brain uptake, hypothalamus", "setting": "[4]; 5 min", "result": "2.59 ± 0.18", "unit": "%ID/g tissue"},
      {"measurement": "Regional brain uptake, rest of brain", "setting": "[4]; 5 min", "result": "3.53 ± 0.11", "unit": "%ID/g tissue"},
      {"measurement": "Regional brain uptake, striatum", "setting": "[4]; 5 min", "result": "5.24 ± 0.45", "unit": "%ID/g tissue"},
      {"measurement": "Regional brain uptake, cerebellum", "setting": "[4]; 15 min", "result": "1.31 ± 1.01", "unit": "%ID/g tissue"},
      {"measurement": "Regional brain uptake, cortex", "setting": "[4]; 15 min", "result": "2.92 ± 0.36", "unit": "%ID/g tissue"},
      {"measurement": "Regional brain uptake, hippocampus", "setting": "[4]; 15 min", "result": "2.51 ± 0.34", "unit": "%ID/g tissue"},
      {"measurement": "Regional brain uptake, hypothalamus", "setting": "[4]; 15 min", "result": "1.66 ± 0.28", "unit": "%ID/g tissue"},
      {"measurement": "Regional brain uptake, rest of brain", "setting": "[4]; 15 min", "result": "2.37 ± 0.34", "unit": "%ID/g tissue"},
      {"measurement": "Regional brain uptake, striatum", "setting": "[4]; 15 min", "result": "3.29 ± 0.36", "unit": "%ID/g tissue"},
      {"measurement": "Regional brain uptake, cerebellum", "setting": "[4]; 30 min", "result": "1.09 ± 0.16", "unit": "%ID/g tissue"},
      {"measurement": "Regional brain uptake, cortex", "setting": "[4]; 30 min", "result": "2.07 ± 0.05", "unit": "%ID/g tissue"},
      {"measurement": "Regional brain uptake, hippocampus", "setting": "[4]; 30 min", "result": "1.76 ± 0.15", "unit": "%ID/g tissue"},
      {"measurement": "Regional brain uptake, hypothalamus", "setting": "[4]; 30 min", "result": "1.04 ± 0.08", "unit": "%ID/g tissue"},
      {"measurement": "Regional brain uptake, rest of brain", "setting": "[4]; 30 min", "result": "1.64 ± 0.06", "unit": "%ID/g tissue"},
      {"measurement": "Regional brain uptake, striatum", "setting": "[4]; 30 min", "result": "2.32 ± 0.15", "unit": "%ID/g tissue"},
      {"measurement": "Regional brain uptake, cerebellum", "setting": "[4]; 60 min", "result": "0.52 ± 0.07", "unit": "%ID/g tissue"},
      {"measurement": "Regional brain uptake, cortex", "setting": "[4]; 60 min", "result": "0.87 ± 0.14", "unit": "%ID/g tissue"},
      {"measurement": "Regional brain uptake, hippocampus", "setting": "[4]; 60 min", "result": "0.81 ± 0.15", "unit": "%ID/g tissue"},
      {"measurement": "Regional brain uptake, hypothalamus", "setting": "[4]; 60 min", "result": "0.51 ± 0.07", "unit": "%ID/g tissue"},
      {"measurement": "Regional brain uptake, rest of brain", "setting": "[4]; 60 min", "result": "0.71 ± 0.10", "unit": "%ID/g tissue"},
      {"measurement": "Regional brain uptake, striatum", "setting": "[4]; 60 min", "result": "1.07 ± 0.14", "unit": "%ID/g tissue"},
      {"measurement": "Regional brain uptake, cerebellum", "setting": "[4]; 90 min", "result": "0.29 ± 0.04", "unit": "%ID/g tissue"},
      {"measurement": "Regional brain uptake, cortex", "setting": "[4]; 90 min", "result": "0.45 ± 0.05", "unit": "%ID/g tissue"},
      {"measurement": "Regional brain uptake, hippocampus", "setting": "[4]; 90 min", "result": "0.43 ± 0.06", "unit": "%ID/g tissue"},
      {"measurement": "Regional brain uptake, hypothalamus", "setting": "[4]; 90 min", "result": "0.31 ± 0.05", "unit": "%ID/g tissue"},
      {"measurement": "Regional brain uptake, rest of brain", "setting": "[4]; 90 min", "result": "0.38 ± 0.04", "unit": "%ID/g tissue"},
      {"measurement": "Regional brain uptake, striatum", "setting": "[4]; 90 min", "result": "0.54 ± 0.07", "unit": "%ID/g tissue"},
      {"measurement": "Blockade in all brain regions", "setting": "sEH [5]; baboon PET", "result": 95, "unit": "%"},
      {"measurement": "VT in cerebellum (average)", "setting": "sEH [5]; baboon, baseline, Logan method", "result": "7.9 ± 1.0"},
      {"measurement": "VT in frontal/temporal gyrus and hippocampus", "setting": "sEH [5]; baboon, baseline, Logan method", "result": "> 10.1"},
      {"measurement": "VT in globus pallidus, corpus callosum, white matter, hypothalamus and thalamus", "setting": "sEH [5]; baboon, baseline, Logan method", "result": "> 8.1"},
      {"measurement": "VT in insula, putamen, caudate and amygdala", "setting": "sEH [5]; baboon, baseline, Logan method", "result": "> 11.5"},
      {"measurement": "Specificity of sEH radiolabeling", "setting": "sEH [5]; both animal species (mouse and baboon)", "result": "up to 95%"}
    ]},
    {"smiles": "O=C(NCCC(c1ccccc1)c1ccccc1)c1cccnc1", "note": "[nor-fluoro-FNDP, N-(3,3-diphenylpropyl)-nicotinamide]", "values": [
      {"measurement": "IC50", "setting": "human sEH", "result": "[…]"}
    ]}
  ]
}
